According to patent publication US11365227B2, “Peptide and pharmaceutical compositions of same for use as an antimicrobial and in cancer treatment” (UNIVERSITAT DE VALÈNCIA, priority 2017, dated 2022):
Where a SMILES comes first, the peptide text is derived from it.

Tests used:
S. aureus = experiment: Antimicrobial activity by flow cytometry (SYBR Green / propidium iodide); type: cell-based, Staphylococcus aureus subsp. aureus CECT 4013
Protocol: The strain used was CECT 4013 of S. aureus subsp. aureus, publicly accessible deposited in the Spanish Type Culture Collection (CECT).
Starting from cells of S. aureus cultured overnight in a liquid medium LB (peptone 1%, yeast extract 0.5% and NaCl 1%) at 37° C. with stirring, aliquots were obtained in a new liquid medium and allowed to grow until reaching an optical density at 600 nm (OD600) of 0.5, optimum for detection in the flow cytometer. Aliquots were prepared with a concentration of 5×10^6 cfu/100 μL of S. aureus to which were added 10, 15, 20 and 25 μg/mL of PaSK, 25 μg/mL of TcDef3-pep and H2O (negative control), solvent used to dilute the peptides. The mixtures were incubated at 37° C. for 8 h and marked with the fluorochromes SYBR Green (Invitrogen) (25 μL of a SYBR Green 25× solution in H2O) that stains all the cells and propidium iodide (Sigma) (10 μL of propidium iodide 1 mg/mL) that stains dead cells. Finally, the cell death caused by the peptides was analysed by flow cytometry with the equipment BD Facs Verse (Becton Dickinson), from the cell culture and flow cytometry section of the Central Services for Research Support of the University of Valencia. The experiments were performed in duplicate.
The flow cytometer forces cells to pass one by one through a needle, creating a thin line of liquid and detecting how the laser beam (argon emission laser at 488 nm, in the equipment used) interacts with the cells, depending on how the incident light is deviated and the fluorescence emitted by the excited fluorochromes. The results are presented as graphs obtained with the analysis program BD Facs suite v1.0.5.3841 (Becton Dickinson). […] Then, a second graph is obtained with the parameters SSC and FITC (fluorescence parameter indicating the cells containing SYBR Green), to differentiate the cells from the other particles that may be present in the sample. Lastly, a third graph is obtained with the fluorescence parameters FITC and PerCPCy5.5 (indicating the cells stained with propidium iodide) to differentiate the cells that have been stained only by SYBR Green from those stained with propidium iodide, which will be those that have died.
The antimicrobial activity of the peptide PaSK was determined by flow cytometry. […] Therefore, the use of these two fluorochromes provides a method for determining viable cells, quantifying the loss of cell viability from the increase in propidium iodide inside the dead cells.
After incubating the cells of strain CECT 4013 of S. aureus with 25 μg/mL of the peptides TcDef3-pep and PaSK, the percentage of dead cells was determined. […] FIGS. 1A-1D show the graphs corresponding to the fluorescence obtained in the windows of the flow cytometer.

[1] = test system: MDA-MB-231 triple-negative breast cancer cells; experiment: Cell viability MTS assay, cytotoxic effect; type: cell-based, human; settings: around 100 μM (400 μg/mL)
Protocol: Cell viability was determined by the MTS method. The MDA-MB-231 cells cultured in plates with 96 wells at 37° C. in an atmosphere humidified with 10% CO2 to a density of 5×10^3 cells/well were incubated with different concentrations of the peptide PaSK for 24 h. Then 20 μL were added of the solution MTS/PMS (3-(4,5-dimethylthiazol-2-yl)-5-(3-carboxymethoxyfenyl)-2-(4-sulphophenyl)-2H-tetrazole/phenazine methosulphate) to each well and after incubating for 2 h in the dark the absorbance at 490 nm was read in a plate reader. The percentage reduction in number of cells was calculated according to the formula (1−E/C)×100, where E is the absorbance of the cells treated with the peptide and C is the absorbance of the samples of the control cells.
The cytotoxic effect of the peptide PaSK has been studied in two cell lines of triple-negative breast cancer cells, one human (MDA-MB-231) and one mouse (4T1), and a line of normal mouse mammary epithelial cells (HC-11). To this end, a cell viability MTS assay was performed, based on the use of a compound derived from tetrazolium that is reduced in live cells to form a soluble coloured product. […]

MDA-MB-231 tumour cells = experiment: Cell cycle analysis by flow cytometry (CycleTEST PLUS, ModFit LT); type: cell-based, human; settings: 100 μg/mL, 72 h
Protocol: The MDA-MB-231 cells were cultured in dishes with 6 wells with a density of 5×10^4 cells per well, in which 200 μL or 400 μL of PaSK were added (final concentrations 100 μg/mL and 200 μg/mL) or the same volume of the medium (solvent used to dilute the peptide) in the corresponding controls. The cells were incubated at 37° C. for 72 h.
For the cell line analysis, the CycleTEST™ PLUS DNA Reagent Kit (Sigma-Aldrich) was used. Two washes were carried out using citrate buffer (containing sodium citrate, saccharose and dimethyl sulphoxide (DMSO)), centrifuging the samples in each one at 300×g for 5 min, and one final wash was performed in which the number of cells was adjusted to 5×10^5 and centrifuged at 400×g for 5 min, and then adding 250 μL of solution A (containing trypsin in a detergent buffer with spermine tetrahydrochloride), 200 μL of solution B (containing an inhibitor of trypsin and ribonuclease A, in a stabilising buffer of citrate with spermine tetrahydrochloride) and 200 μL of solution C (includes PI and the stabilising buffer with spermine tetrahydrochloride), leaving between the addition of each solution an interval of 10 min at room temperature and performing the last one, before filtering, in a cold chamber and in the dark. The analyses of cell death produced by the peptide and of the stage of cell cycle of the cells were performed with the equipment BD Facs Verse (Becton Dickinson). The cell cycle modelling was performed with the software Modfit LT, version 3.3.11. The experiments were performed in duplicate.
In this example, the cytotoxic and antiproliferative activity of the peptide PaSK is assessed by flow cytometry, performing an analysis of cell viability and an analysis of the cell cycle. After treatment of the tumour cells MDA-MB-231 with 200 μg/mL (cell viability experiments) and 100 μg/mL (analysis of cell cycle) of PaSK the percentage of viable cells was determined, as well as the stage of the cell cycle in which proliferation was stopped.

## CC[C@H](C)[C@H](NC(=O)[C@H](CCCNC(=N)N)NC(=O)[C@H](CCCNC(=N)N)NC(=O)[C@H](CCCCN)NC(=O)[C@H](CC(N)=O)NC(=O)[C@H](CS)NC(=O)[C@H](Cc1ccc(O)cc1)NC(=O)CNC(=O)CNC(=O)[C@H](CCCNC(=N)N)NC(=O)[C@H](CCCCN)NC(=O)[C@H](CCCNC(=N)N)NC(=O)[C@H](CCCCN)NC(=O)[C@H](CC(C)C)NC(=O)[C@H](CC(C)C)NC(=O)[C@H](CS)NC(=O)[C@H](Cc1c[nH]cn1)NC(=O)[C@H](C)NC(=O)[C@H](C)NC(=O)[C@H](CS)NC(=O)[C@H](C)NC(=O)[C@H](C)NC(=O)[C@H](Cc1c[nH]cn1)NC(=O)[C@H](CC(N)=O)NC(=O)[C@@H](NC(=O)[C@@H](N)CCCCN)C(C)C)C(=O)N[C@@H](CS)C(=O)N[C@H](C(=O)N[C@@H](CS)C(=O)N[C@@H](CCCNC(=N)N)C(=O)N[C@@H](CC(N)=O)C(=O)O)C(C)C [PaSK] (H-KVNHAACAAHCLLKRKRGGYCNKRRICVCRN-OH; N-terminus and C-terminus assumed)
S. aureus; 10 μg/mL, same conditions
  percentage of cell death (cytotoxicity): ~100%
S. aureus; 25 μg/mL, 8 h at 37° C., 2 replicates
  percentage of dead cells (cytotoxicity): ~100%
[1]
  cytotoxicity compared with the other cell lines: significantly more cytotoxic
MDA-MB-231 tumour cells
  percentage of cells in stage G1: 57.9%
  percentage of cells in stage G2: 9.0%
  percentage of cells in stage S: 33.2%
